From patent publication US4994488A, “Novel imidate insecticides” (ICI Americas Inc., priority 1989, dated 1991)

Key:
Format in all cases: in vivo
[1] = system: Western Spotted Cucumber Beetle Larvae [Diabrotica undecimpunctata undecimpunctata (Mannherheim)]; test: Western spotted cucumber beetle larvae soil test (Diabrotica); details: ppm of test compound in the soil
Description: (§1) The compounds in Table 1 above were tested for insecticidal activity using the following testing procedures. LC50 values, based on the results of these tests and calculated according to dosage-mortality curves, are expressed in Table 2.
Western Spotted Cucumber Beetle Larvae[Diabrotica undecimpunctata undecimpunctata (Mannherheim)]
Ten grams of moist potting soil was placed in a plastic cup. The test compound was dissolved in acetone. A 0.05 ml aliquot of the test sample, diluted to the desired concentration, was added to the soil. The cup was capped and the soil was mixed on a vortex mixer for approximately 15 seconds. An indentation was made on the surface of the soil and approximately 50 Diabrotica eggs were added. The eggs were covered with soil and maintained at room temperature (approximately 70° F. or 21° C.). Four days later a section of Romaine lettuce (Latuca sativa) leaf was placed in the treated cups. One week later the cups were examined for live larvae. TEst concentrations ranged from 25 ppm downward. The LC-50 value is expressed below in Table 2 under the heading "Diabrotica" in terms of ppm of the test compound in the soil.

[2] = system: two-spotted mite [Tetranychus urticae (Koch)], eggs; test: Two-spotted mite acaricidal test, eggs (2SM-E); details: percent of test compound in solution; nymphs hatching from eggs; 5-7 days
Description: as §1
(§2) Acaricidal Evaluation Test
(§3) The two-spotted mite (2SM) [Tetranychus urticae (Koch)]was employed in tests for miticides. The test procedure was as follows:
(§4) Pinto bean plants (Phaseolus sp.), approximately 10 cm tall, were transplanted into sandy loam soil in small cups and thoroughly infested with two-spotted mites of mixed ages and sexes. Twenty-four hours later the infested plants were inverted and dipped for 2-3 seconds in 50--50 acetone-water solutions of the test compound. Treated plants were held in the greenhouse, and 5-7 days later mortality was determined for both adult mites and the nymphs hatching from eggs which were on the plants at the time of treatment. Test concentrations ranged from 0.05% downward. The LC-50 value is expressed below in Table 2 under the headings "2SM-A" (i.e., adults) and "2SM-E" (i.e. eggs) in terms of percent concentration of the test compound in the solution.

[3] = system: Tobacco Budworm [Heliothis virescens (Fabricius)], eggs; test: Tobacco budworm egg test (TBW-E); details: percent of test compound in solution; 2-day old eggs
Description: (§5) The compounds in Table 1 above were tested for insecticidal activity using the following testing procedures.
Tobacco Budworm [Heliothis virescens (Fabricius)]
(b). Eggs: Paper towel patches of 2-day old eggs of the tobacco budworm were dipped in acetone solutions of the test compound and placed in petri dishes containing a portion of larval rearing medium. […] Test concentrations ranged from 0.1% downward. The LC-50 value is expressed below in Table 2 under the heading "TBW-E" in terms of percent of the test compound in the solution.

[4] = system: two-spotted mite [Tetranychus urticae (Koch)], adults; test: Two-spotted mite acaricidal test, adults (2SM-A); details: percent of test compound in solution, 5-7 days
Description: as §1, §2, §3, §4

[5] = system: Black Bean Aphid [Aphis fabae (Scop.)]; test: Black bean aphid insecticidal test (BBA), foliar spray; details: percent of test compound in sprayed solution; 48 hours
Description: as §5

[6] = system: Beet Armyworm (Spodoptera exigua); test: Beet armyworm test (BAW); details: percent of test compound in solution; second-instar larvae; five days
Description: as §1
Beet Armyworm (Spodoptera exigua)
Test compounds were diluted in a 50--50 acetone-water solution. Young leaves of sugar beets (Beta vulgaris) were immersed in the test solutions for 2-3 seconds and placed on a wire screen to dry. The dried leaves were placed in petri dishes containing a moistened filter paper and infested with five second-instar beet armyworm larvae. The dishes were placed in a high humidity chamber. Mortality of the larvae was recorded five days later. Test concentrations ranged from 0.1% downward. The LC-50 values are expressed below in Table 2 under the heading "BAW" in terms of percent of the test compound in solution.

[7] = system: Cabbage Looper [Trichoplusia ni (Hubner)]; test: Cabbage looper test (CL); details: percent of test compound in solution; second-instar larvae; 3-5 days
Description: as §5
Cabbage Looper [Trichoplusia ni (Hubner)]
The test compound was diluted in a 50--50 acetone-water solution. Cotyledons of hyzini squash (Calabacita abobrinha), approximately 1×1.5 inches, were immersed in the test solutions for 2-3 seconds and placed on a wire screen to dry. The dried leaves were placed in petri dished containing a moistened piece of filter paper and infested with 5 secondinstar cabbage looper larvae. The dished were placed in a high humidity chamber. Mortality of the larvae was recorded 3-5 days later. Test concentrations ranged from 0.1% downward. The LC-50 value is expressed below in Table 2 under the heading "CL" in terms of percent of the test compound in solution.

[8] = system: Maize weevil (Sitophilus zeamais [Motschulsky]); test: Maize weevil test on treated corn seeds; details: 0.01% test solution, 48 hours, about 25° C.
Description: Maize weevil (Sitophilus zeamais [Motschulsky])
Test compounds were diluted in a 50:50 acetone:water solution to a concentration of 0.01%. Four corn seeds [Zea mays, (L.)]which had been immersed in test solutions for 2-3 seconds and allowed to dry were placed in covered containers at a temperature of about 25° C. Mortality was recorded after 48 hours.

[9] = system: Housefly [Musca domestica]; test: Housefly insecticidal test (HF); details: per 25 female houseflies; mortality at 48 hours
Description: as §1
Housefly [Musca domestica]
The test compound was diluted in acetone and aliquots pipetted onto the bottom of aluminum dishes. To ensure even spreading of the chemical on the bottom of the dishes, 1 ml of acetone containing 0.01% peanut oil was also added to each dish. After all solvents had evaporated, the dishes were placed in circular cardboard cages containing 25 female houseflies, 1-2 days old. The cages were covered on the bottom with cellophane and on the top with tulle netting, and each contained a sugar-water saturated cotton plug for maintenance of the flies. Mortality was recorded after 48 hours. Test levels ranged from 100 μg/25 female houseflies downward. The LC-50 value is expressed below in Table 2 under the heading "HF", in terms of μg of the test compound per 25 female flies.

[10] = system: Aster Leafhopper [Macrosteles fascifrens (Stal)]; test: Contact residue assay on the aster leafhopper (LH); details: percent of test compound in solution; adults/nymphs; 48 hours
Description: as §1
Contact Residue Assay on the Aster Leafhopper [Macrosteles fascifrens (Stal)]
Oat seedlings (Avena sp) were grown in a commercial potting soil in cups. When the plants were approximately 10 cm tall they were thinned to three plants per cup and dipped for 2-3 seconds in 50--50 acetone-water solutions of the test compounds. When the plants had dried, a clear plastic tube was placed over them and the bottom end pressed into the cup. Ten aster leafhopper adults/nymphs were then placed in each tube and the tops of the tubes covered with white organdy cloth. Mortality counts were made after 48 hours. Test concentrations ranged from 0.05% down to that at which 50% mortality occurred. The LC50 values are expressed below in Table 2 under the heading "LH" in terms of the percent of the test compound in the solution.

Structure (SMILES) | LC50 Diabrotica [1] | LC50 2-SM E (eggs) [2] [%] | LC50 TBW E (eggs) [3] [%] | LC50 2-SM A (adults) [4] [%] | LC50 BBA [5] [%] | LC50 BAW [6] [%] | LC50 CL [7] [%] | mortality at 0.01 % [8] [%] | LC50 HF [9] [µg] | LC50 LH [10] [%]
FC(F)(F)c1cccc(N=C(OCc2cccc(Oc3ccccc3)c2)C2CC2)c1 [Compound 9] | > 25 ppm (soil) | > 0.05 | > 0.1 | > 0.05 | > 0.05 | – | – | – | – | –
Fc1ccc(N=C(OCc2cccc(Oc3ccccc3)c2)C2CC2)cc1Cl [Compound 10] | > 25 ppm (soil) | > 0.05 | 0.1 | > 0.05 | – | – | – | – | – | –
Fc1ccc(Oc2cccc(COC(=Nc3ccc(F)c(Cl)c3)C3CC3)c2)cc1 [Compound 11] | > 25 ppm (soil) | > 0.05 | 0.05 | > 0.05 | – | > 0.1 | – | – | – | –
CC1(C)C(C(=Nc2ccc(F)c(Cl)c2)OCc2cccc(Oc3ccccc3)c2)C1(C)C [Compound 12] | > 25 ppm (soil) | 0.05 | > 0.01 | 0.05 | – | – | – | – | – | –
c1ccc(Oc2cccc(COC(=Nc3ccc4c(c3)OCO4)C3CC3)c2)cc1 [Compound 13] | > 25 ppm (soil) | > 0.05 | > 0.01 | > 0.05 | – | – | 0.002 | 50 | – | –
CC(C)(C)c1ccc(N=C(OCc2cccc(Oc3ccc(F)cc3)c2)C2CC2)cc1 [Compound 14] | > 25 ppm (soil) | 0.02 | > 0.1 | 0.02 | – | – | 0.017 | – | > 100 | > 0.05
Fc1ccc(COC(=Nc2ccc(C(F)(F)F)cc2)C2CC2)cc1Oc1ccccc1 [Compound 15] | > 25 ppm (soil) | < 0.05 | 0.017 | < 0.05 | – | – | – | 50 | – | –
Fc1ccc(COC(=Nc2ccc(C(F)(F)F)cc2)C2CC2)cc1Oc1ccc(Cl)cc1 [Compound 16] | > 25 ppm (soil) | > 0.05 | 0.023 | > 0.05 | – | – | – | – | – | –
